Source: patent publication US9340504B2, “Pyridine and piperidine derivatives as novel sodium channel blockers” (priority 2013, dated 2016)

molecular target: human Nav1.7 (Homo sapiens (Human), UniProt Q15858); assay: FLIPR or FLIPR TETRA sodium dye assay with KCl and test article pre-incubation; assay type: cell-based; conditions: read-out: Nav1.7 Activity (μM) FLIPR assay IC50 (μM) ± SEM
Sequence (Q15858 with tags, fused parts or gaps limits assumed): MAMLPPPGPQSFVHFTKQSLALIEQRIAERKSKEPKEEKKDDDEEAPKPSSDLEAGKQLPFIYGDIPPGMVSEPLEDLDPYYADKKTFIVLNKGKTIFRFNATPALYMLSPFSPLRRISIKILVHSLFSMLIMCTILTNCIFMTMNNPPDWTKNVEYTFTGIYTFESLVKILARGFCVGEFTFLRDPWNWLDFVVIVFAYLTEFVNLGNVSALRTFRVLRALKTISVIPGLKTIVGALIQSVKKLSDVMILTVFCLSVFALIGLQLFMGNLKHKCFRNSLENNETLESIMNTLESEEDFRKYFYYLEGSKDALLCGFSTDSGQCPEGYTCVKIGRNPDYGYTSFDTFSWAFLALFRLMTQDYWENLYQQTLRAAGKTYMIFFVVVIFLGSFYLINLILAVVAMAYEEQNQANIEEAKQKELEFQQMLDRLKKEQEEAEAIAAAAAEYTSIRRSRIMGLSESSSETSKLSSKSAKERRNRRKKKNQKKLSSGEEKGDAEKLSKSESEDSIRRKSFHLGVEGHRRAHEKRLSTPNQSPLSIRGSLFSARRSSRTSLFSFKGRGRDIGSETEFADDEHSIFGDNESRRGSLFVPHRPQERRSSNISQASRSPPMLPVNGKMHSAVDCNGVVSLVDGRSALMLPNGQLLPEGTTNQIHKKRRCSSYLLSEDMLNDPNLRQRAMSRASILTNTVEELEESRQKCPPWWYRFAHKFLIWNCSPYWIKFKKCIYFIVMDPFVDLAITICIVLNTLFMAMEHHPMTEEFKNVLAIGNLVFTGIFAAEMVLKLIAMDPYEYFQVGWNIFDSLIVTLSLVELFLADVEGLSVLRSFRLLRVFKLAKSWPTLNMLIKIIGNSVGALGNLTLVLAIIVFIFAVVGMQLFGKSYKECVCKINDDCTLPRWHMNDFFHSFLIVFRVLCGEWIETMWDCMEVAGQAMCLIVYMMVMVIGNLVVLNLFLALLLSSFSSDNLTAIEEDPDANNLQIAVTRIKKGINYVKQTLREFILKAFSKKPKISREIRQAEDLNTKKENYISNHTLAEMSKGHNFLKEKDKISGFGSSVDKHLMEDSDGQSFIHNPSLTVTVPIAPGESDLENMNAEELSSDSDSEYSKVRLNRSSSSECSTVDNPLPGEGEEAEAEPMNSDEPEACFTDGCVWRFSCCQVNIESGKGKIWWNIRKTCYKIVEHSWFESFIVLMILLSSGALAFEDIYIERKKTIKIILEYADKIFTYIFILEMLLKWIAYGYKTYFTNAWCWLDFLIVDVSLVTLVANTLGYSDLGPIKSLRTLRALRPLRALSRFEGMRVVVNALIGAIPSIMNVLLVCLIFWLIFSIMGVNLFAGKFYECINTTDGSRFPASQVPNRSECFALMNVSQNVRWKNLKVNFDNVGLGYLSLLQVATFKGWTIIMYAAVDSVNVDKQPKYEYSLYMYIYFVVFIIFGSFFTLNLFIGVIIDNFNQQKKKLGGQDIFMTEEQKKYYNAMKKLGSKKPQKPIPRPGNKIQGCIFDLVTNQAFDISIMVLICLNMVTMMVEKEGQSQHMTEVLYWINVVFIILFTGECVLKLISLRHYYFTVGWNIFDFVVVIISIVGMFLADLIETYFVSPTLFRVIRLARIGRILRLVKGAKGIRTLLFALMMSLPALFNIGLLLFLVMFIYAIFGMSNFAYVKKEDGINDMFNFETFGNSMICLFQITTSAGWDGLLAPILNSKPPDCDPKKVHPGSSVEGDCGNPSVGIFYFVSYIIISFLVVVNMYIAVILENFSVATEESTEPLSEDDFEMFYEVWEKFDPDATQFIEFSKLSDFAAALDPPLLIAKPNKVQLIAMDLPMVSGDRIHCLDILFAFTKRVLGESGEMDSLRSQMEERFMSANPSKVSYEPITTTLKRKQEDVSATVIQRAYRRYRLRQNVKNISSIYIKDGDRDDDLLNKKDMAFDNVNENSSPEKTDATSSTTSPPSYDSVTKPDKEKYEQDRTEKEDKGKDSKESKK

Compound COc1ncc(-c2ccccc2Cc2cccc(-c3ccc(OCC(F)(F)F)nc3)n2)cn1 [Compound 13, 6-(2-(2-methoxypyrimidin-5-yl)benzyl)-6′-(2,2,2-trifluoroethoxy)-2,3′-bipyridine] has an IC50 of 0.849 ± 0.069 µM.

same assay, conditions: recombinant HEK293 cells expressing human Nav1.7 alpha subunit; CoroNa Green sodium dye; veratridine and scorpion venom as agonists; read-out: Nav1.7 Activity (μM) FLIPR assay IC50 (μM) ± SEM

Point of comparison: CSc1ncc(-c2ccccc2Cc2cccc(-c3ccc(OCC(F)(F)F)nc3)n2)cn1 [Compound 14, 6-(2-(2-(methylthio)pyrimidin-5-yl)benzyl)-6′-(2,2,2-trifluoroethoxy)-2,3′-bipyridine], IC50 0.947 ± 0.06 µM. Against it:
- Oc1ccccc1Cc1cccc(-c2ccc(OCC(F)(F)F)nc2)n1 [Compound 8, 2-((6′-(2,2,2-trifluoroethoxy)-[2,3′-bipyridin]-6-yl)methyl)phenol] — higher, > 20 µM
- COc1ncccc1-c1ccccc1Cc1cccc(-c2ccc(OCC(F)(F)F)nc2)n1 [Compound 11, 6-(2-(2-methoxypyridin-3-yl)benzyl)-6′-(2,2,2-trifluoroethoxy)-2,3′-bipyridine] — higher, > 20 µM
- Fc1ccc(-c2ccccc2Cc2cccc(-c3ccc(OCC(F)(F)F)nc3)n2)cn1 [Compound 12, 6-(2-(6-fluoropyridin-3-yl)benzyl)-6′-(2,2,2-trifluoroethoxy)-2,3′-bipyridine] — higher, > 20 µM
- CN(C)c1ncc(-c2ccccc2Cc2cccc(-c3ccc(OCC(F)(F)F)nc3)n2)cn1 [Compound 15, N,N-dimethyl-5-(2-((6′-(2,2,2-trifluoroethoxy)-[2,3′-bipyridin]-6-yl)methyl)phenyl)pyrimidin-2-amine] — 2.8-fold lower, 0.34 ± 0.012 µM
